Laboratory results published in US6770649B2, “1-[1-(hetero)aryl-1-perhydroxyalkylmethyl]-piperazine compounds, process for their preparation and pharmaceutical compositions containing them” (Solvay Pharmaceuticals GmbH, priority 2001, dated 2004).
Read-outs that look alike come from different tables or passages of the source.

How the values were obtained:
human NK-2 receptor = biological target: T1, human NK-2 receptor (Homo sapiens, UniProt P21452); assay: Binding power of the test substances to NK-2 receptors in vitro ([3H]-SR 48968 displacement, CHO cell membranes); conditions: displacement of [3H]-SR 48968, 90 min incubation, average of at least three measurements, 10^-6 to 10^-10 mol/l, read-out: pKi, affinity to human NK-2 receptors (converted)
T1 construct: expressed in transfected cells; host or cells: CHO cells (membrane preparation)
T1 sequence (P21452 1-398): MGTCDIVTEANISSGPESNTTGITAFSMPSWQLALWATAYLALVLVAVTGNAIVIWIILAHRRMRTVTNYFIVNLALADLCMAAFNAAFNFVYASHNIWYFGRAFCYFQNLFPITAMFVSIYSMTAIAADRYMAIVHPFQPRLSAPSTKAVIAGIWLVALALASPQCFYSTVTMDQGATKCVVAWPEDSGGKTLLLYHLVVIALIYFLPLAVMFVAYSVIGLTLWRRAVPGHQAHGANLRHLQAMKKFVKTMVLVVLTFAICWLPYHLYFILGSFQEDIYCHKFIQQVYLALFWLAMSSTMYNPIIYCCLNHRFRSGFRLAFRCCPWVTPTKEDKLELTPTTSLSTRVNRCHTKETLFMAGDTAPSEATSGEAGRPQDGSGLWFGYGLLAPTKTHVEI
Method: 1. Determination of the Binding Power of the Test Substances to NK-2 Receptors in vitro
The affinity of the test substances to human NK-2 receptors was measured in vitro. The ability of the test substances to displace the selective NK-2 receptor antagonist SR 48968 (=saredutant) used as reference ligand from its corresponding bond was determined.
The receptor binding studies were carried out with radioactively marked [^3H]-SR 48968 (from Amersham) as ligand. For the binding test, different samples of a membrane preparation of CHO cells (=[…]), which express the human NK-2 receptor (for preparation, see N. P. Gerard et al., Journal of Biological Chemistry 265/33 (1990) 20455-20462), were incubated for 90 minutes (=min.) with a solution of the marked ligand, with the incubation mixtures containing no test substance or additions of different concentrations of test substance. Then in each case the membrane-bound ligands in the samples were separated from free ligands by filtration. The fraction remaining in the filter was washed several times with buffer solution, before its radioactivity was measured using a liquid scintillation counter. That concentration which effects half-maximum displacement of the bound reference ligand was determined as IC50 of the respective test substance. The inhibition constant (Ki value) of the test substance was calculated from the respective IC50 value, and was stated as the negative logarithmised value thereof (pKi).
For the compounds of Examples 1 to 39, the affinity to human NK-2 receptors was determined in each case by at least three measurements of the test substances in concentration series of 10^−6 to 10^−10 mol/l. If several measurements were performed, the average thereof was listed each time.

NK-2 receptors = biological target: T2, NK-2 receptors (Cavia porcellus, UniProt Q64077); assay: NK-2-receptor-antagonistic effectiveness in vivo in anaesthetised guinea pigs (NKA test stimulus); design: species or system guinea pig; conditions: for ED50: guinea pig
T2 construct: the NK-2 receptors present in the gall-bladder preparations; from tissue; host or cells: Pirbright-White guinea pig: isolated gall-bladder (A2); anaesthetised whole animal (A3)
T2 sequence (Q64077 1-402): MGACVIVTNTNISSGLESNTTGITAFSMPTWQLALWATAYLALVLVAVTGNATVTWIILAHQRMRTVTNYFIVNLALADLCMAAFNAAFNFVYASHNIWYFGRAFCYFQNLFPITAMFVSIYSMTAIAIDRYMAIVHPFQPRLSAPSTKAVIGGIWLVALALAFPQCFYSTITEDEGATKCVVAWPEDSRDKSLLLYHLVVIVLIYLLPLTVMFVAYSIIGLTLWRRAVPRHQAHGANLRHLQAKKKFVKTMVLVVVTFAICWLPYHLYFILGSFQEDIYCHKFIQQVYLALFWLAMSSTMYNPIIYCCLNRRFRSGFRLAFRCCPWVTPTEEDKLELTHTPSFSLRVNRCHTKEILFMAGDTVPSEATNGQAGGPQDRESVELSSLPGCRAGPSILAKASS
Excerpt: 3. Determination of the NK-2-receptor-antagonistic Effectiveness of the Test Substances in vivo
The NK-2- and NK-1-antagonistic activities of the test substances were investigated in anaesthetised guinea pigs in each case after intravenous (=i.v.) and oral (=p.o.) administration in vivio. With the present test model it is possible to detect both NK-2-antagonistic effects in three different organ systems (respiratory tracts, colon and circulation) and NK-1-antagonistic effects (rapid drop in blood pressure) in an animal simultaneously.
Pirbright-White guinea pigs of a body weight of 500-700 g were anaesthetised with ketamine/xylazine (67/13 mg/kg subcutaneously, initial dose, further doses administered as required). The animals were provided with an intravenous catheter in order to administer the substance and an intra-arterial catheter to measure the blood pressure. The animals were artificially ventilated via a tracheal cannula and the respiratory pressure was recorded by means of a pressure transducer. A balloon was introduced into the distal colon of the animals for manometric recording of colon motility by means of a pressure transducer. Blood pressure, heart rate, respiratory pressure and colonic pressure were measured continuously for each animal and plotted on a recorder and by means of a digital data-processing system. Neurokinin A (=NKA; 200 pmol/animal) was administered i.v. as a bolus as a test stimulus to stimulate the NK-1- and the NK-2 receptors. An addition of NKA of this type results in a great increase in respiratory pressure (bronchoconstriction) and colonic pressure, and in a biphasic drop in blood pressure. The first phase of hypotension (=phase of maximum hypotension within the first minute after administration of NKA) is mediated via NK-1 receptors, since they can be blocked completely by specific NK-1 receptor antagonists. The second phase of delayed hypotension (=phase of maximum hypotension after 2-5 min.) on the other hand is mediated via NK-2 receptors, since they can be blocked by specific NK-2 receptor antagonists. The doses of the test substances are given as ED50 values which each result in a response to the NKA test stimulus which is reduced to 50% of the initial value, as characteristic variables for the individual measurement parameters bronchoconstriction, colonic pressure and change in blood pressure mediated by NK-1 or NK-2.
The antagonistic effects of the test substances were first investigated in cumulative form, the time of the NKA test stimulus being 1 min. after the administration of the respective doses of the test substances had ended. These ED50 values obtained from cumulative dose effect curves are plotted in Table 2 below. In order additionally to detect the variation over time of the antagonistic effects of the test substances, the action of the NKA test stimulus was determined at different times (1, 30, 60, 90, 120, 150 and 180 min.) after administration of the test substances.

Row | Structure (SMILES) | Ki (human NK-2 receptor) [µM] | also measured
1 | CN(C[C@@H](CCN1CCN(C(c2ccco2)[C@H](O)[C@@H](O)[C@H](O)CO)CC1)c1ccc(Cl)c(Cl)c1)C(=O)c1ccccc1 (stereo partly drawn) [Example 10, N-((2S)-2-(3,4-dichlorophenyl)-4-{4[(2S,3R,4R)-2,3,4,5-tetrahydroxy-1-(2-furyl)pentyl]-1-piperazinyl}-butyl)-N-methylbenzamide] | ≤ 0.01 | 
2 | CN(C[C@@H](CCN1CCN(C(c2ccsc2)[C@H](O)CO)CC1)c1ccc(Cl)c(Cl)c1)C(=O)c1ccccc1 (stereo partly drawn) [Example 5] | ≤ 0.001 | NK-2-receptor-antagonistic activity of colon motility, late drop in blood pressure and respiratory resistance (in words) (NK-2 receptors; cumulative administration i.v., antagonism detected 1 min. after administration had ended): marked NK-2-receptor-antagonistic activity; ED50 (NK-2 receptors; iv, cumulative dosing, NKA stimulus 1 min. after administration, NK-2-mediated late drop in blood pressure, read-out: ED50 Blood pressure, i.v. after 1 min. (cumulative)): 0.13 µmol/kg; ED50 (NK-2 receptors; iv, cumulative dosing, NKA stimulus 1 min. after administration, respiratory resistance (bronchoconstriction), read-out: ED50 Respiratory resistance, i.v. after 1 min. (cumulative)): 0.106 µmol/kg; ED50 (NK-2 receptors; iv, cumulative dosing, NKA stimulus (200 pmol/animal i.v.) 1 min. after administration, colonic pressure, read-out: ED50 Colonic pressure, i.v. after 1 min. (cumulative)): 0.041 µmol/kg; ED50 (NK-2 receptors; iv, from AUC of antagonistic effect over 120 min after administration, colonic pressure, read-out: ED50 Colonic pressure, i.v. AUC over 120 min): 0.014 µmol/kg; ED50 (NK-2 receptors; iv, from AUC over 120 min after administration, NK-2-mediated drop in blood pressure, read-out: ED50 Blood pressure, i.v. AUC over 120 min): 0.004 µmol/kg; ED50 (NK-2 receptors; iv, from AUC over 120 min after administration, respiratory resistance, read-out: ED50 Respiratory resistance, i.v. AUC over 120 min): 0.008 µmol/kg; ED50 (NK-2 receptors; po, from AUC over 180 min after administration, NK-2-mediated drop in blood pressure, read-out: ED50 Blood pressure, p.o. AUC over 180 min.): 7.6 µmol/kg; ED50 (NK-2 receptors; po, from AUC over 180 min after administration, colonic pressure, read-out: ED50 Colonic pressure, p.o. AUC over 180 min.): 3.4 µmol/kg; ED50 (NK-2 receptors; po, from AUC over 180 min after administration, respiratory resistance, read-out: ED50 Respiratory resistance, p.o. AUC over 180 min.): 2.7 µmol/kg
3 | CN(C[C@@H](CCN1CCN(C(c2ccsc2)[C@@H](O)[C@H](O)[C@@H](O)CO)CC1)c1ccc(Cl)c(Cl)c1)C(=O)c1ccccc1 (stereo partly drawn) [Example 12, N-((2S)-2-(3,4-dichlorophenyl)-4-{4[(2R,3S,4S)-2,3,4,5-tetrahydroxy-1-(3-thienyl)pentyl]-1-piperazinyl}butyl)-N-methylbenzamide] | ≤ 0.01 | 
4 | CN(CC(CCN1CCN(C(c2ccsc2)[C@@H](O)[C@H](O)[C@@H](O)[C@@H](O)CO)CC1)c1ccc(Cl)c(Cl)c1)C(=O)c1ccccc1 (mixture of isomers) [Example 20] | ≤ 0.01 | 
5 | CN(CC(CCN1CCN(C(c2cccs2)[C@H](O)[C@@H](O)[C@H](O)CO)CC1)c1ccc(Cl)c(Cl)c1)C(=O)c1ccccc1 (mixture of isomers) [Example 24] | ≤ 0.01 | 
6 | CN(CC(CCN1CCN(C(c2ccsc2)[C@H](O)[C@@H](O)[C@H](O)[C@H](O)CO)CC1)c1ccc(Cl)c(Cl)c1)C(=O)c1ccccc1 (mixture of isomers) [Example 23] | ≤ 0.01 | 
7 | CN(CC(CCN1CCN(C(c2ccsc2)[C@H](O)CO)CC1)c1ccc(Cl)c(Cl)c1)C(=O)c1ccccc1 (mixture of isomers) [Example 8] | ≤ 0.01 | 
8 | CN(C[C@@H](CCN1CCN(C(c2ccco2)[C@H]2COC(=S)O2)CC1)c1ccc(Cl)c(Cl)c1)C(=O)c1ccccc1 (stereo partly drawn) [Example 39] | ≤ 0.001 | 
9 | CN(C[C@@H](CCN1CCN(C(c2ccoc2)[C@H](O)CO)CC1)c1ccc(Cl)c(Cl)c1)C(=O)c1ccccc1 (stereo partly drawn) [Example 6, N-((2S)-2-(3,4-dichlorophenyl)-4-{4[(2S)-2,3-dihydroxy-1-(3-furyl)propyl]-1-piperazinyl}-butyl)-N-methylbenzamide] | ≤ 0.001 | 
10 | CN(CC(CCN1CCN(C(c2ccsc2)[C@@H](O)[C@@H](O)[C@@H](O)CO)CC1)c1ccc(Cl)c(Cl)c1)C(=O)c1ccccc1 (mixture of isomers) [Example 27] | ≤ 0.01 | 
11 | CN(CC(CCN1CCN(C(c2cccs2)[C@@H](O)[C@H](O)[C@H](O)CO)CC1)c1ccc(Cl)c(Cl)c1)C(=O)c1ccccc1 (mixture of isomers) [Example 19] | ≤ 0.01 | 
12 | CN(CC(CCN1CCN(C(c2ccsc2)C(O)CO)CC1)c1ccc(Cl)c(Cl)c1)C(=O)c1ccccc1 (stereo not drawn) [Example 18] | ≤ 0.01 | 

Now from value to compound, other results behind:

Row | Ki (human NK-2 receptor) [µM] | Structure (SMILES) | also measured
13 | ≤ 0.001 | CN(C[C@@H](CCN1CCN(C(c2ccco2)[C@H](O)CO)CC1)c1ccc(Cl)c(Cl)c1)C(=O)c1ccccc1 (stereo partly drawn) [Example 2, N-((2S)-2-(3,4-dichlorophenyl)-4-{4[(2S)-2,3-dihydroxy-1-(2-furyl)propyl]-1-piperazinyl}-butyl)-N-methylbenzamide] | 
14 | ≤ 0.01 | CN(CC(CCN1CCN(C(c2ccsc2)[C@@H](O)[C@@H](O)[C@H](O)[C@H](O)CO)CC1)c1ccc(Cl)c(Cl)c1)C(=O)c1ccccc1 (mixture of isomers) [Example 21] | 
15 | ≤ 0.01 | CN(CC(CCN1CCN(C(CO)c2ccsc2)CC1)c1ccc(Cl)c(Cl)c1)C(=O)c1ccccc1 (stereo not drawn) [Example 26] | 
16 | ≤ 0.01 | CN(CC(CCN1CCN(C(c2ccccc2)[C@H](O)[C@@H](O)[C@H](O)CO)CC1)c1ccc(Cl)c(Cl)c1)C(=O)c1ccccc1 (mixture of isomers) [Example 25] | 
17 | ≤ 0.01 | CN(CC(CCN1CCN(C(c2ccsc2)[C@@H](O)CO)CC1)c1ccc(Cl)c(Cl)c1)C(=O)c1ccccc1 (mixture of isomers) [Example 11] | 
18 | ≤ 0.001 | CN(C[C@@H](CCN1CCN(C(c2ccco2)[C@H]2COC(=O)O2)CC1)c1ccc(Cl)c(Cl)c1)C(=O)c1ccccc1 (stereo partly drawn) [Example 4, N-[((2S)-2-(3,4)-dichlorophenyl)-4-(4-{2-furyl[(4S)-2-oxo-1,3-dioxolan-4-yl]methyl}-1-piperazinyl)butyl]-N-methylbenzamide] | 
19 | ≤ 0.01 | CN(CC(CCN1CCN(C(c2cccs2)C(O)CO)CC1)c1ccc(Cl)c(Cl)c1)C(=O)c1ccccc1 (stereo not drawn) [Example 22] | 
20 | ≤ 0.01 | CN(CC(CCN1CCN(C(c2ccsc2)[C@H](O)[C@@H](O)CO)CC1)c1ccc(Cl)c(Cl)c1)C(=O)c1ccccc1 (mixture of isomers) [Example 16] | 
